Measured values: the supplement of paper PMC11061612

Legend:
Test in all cases: combination Emax (second highest fraction inhibited in the dose matrix, 72 h); higher = more inhibition; extreme values may be limits of the assay
[1] = test system: CAL-62 (Thyroid Gland Carcinoma)
Procedure, shortened: (§1)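 Cell lines grown in DMEM/F12 or RPMI with 10% FBS were plated in 1536-well plates and held 24 hours at 37°C, 5% CO2 before 72 hours of exposure to two-drug dose matrices, with DMSO typically at 0.2%. CellTiter-Glo 2.0 luminescence gave viability, which was converted to inhibition. Vehicle wells were set to 0 and blank wells to 1. Combination Emax is the second-highest inhibition in the matrix, and Bliss excess is the observed combination effect minus the expected EA + EB − EA·EB, where EA and EB are the single-agent effects.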

[2] = test system: COLO-680N (Esophageal Squamous Cell Carcinoma)
Procedure, shortened: as §1

[3] = test system: HSC-39 (Gastric Carcinoma)
Procedure, shortened: as §1

IST-MES1 (Mesothelioma) = test system: IST-MES1 (Mesothelioma)
Procedure, shortened: as §1

[4] = test system: L-1236 (Hodgkin's Lymphoma)
Procedure, shortened: as §1

[5] = test system: LK-2 (Squamous Cell Lung Carcinoma)
Procedure, shortened: as §1

[6] = test system: MFE-280 (Endometrial Carcinoma)
Procedure, shortened: as §1

[7] = test system: MKN45 (Gastric Carcinoma)
Procedure, shortened: as §1

NB12 (Neuroblastoma) = test system: NB12 (Neuroblastoma)
Procedure, shortened: as §1

[8] = test system: NCI-H2342 (Lung Adenocarcinoma)
Procedure, shortened: as §1

[9] = test system: PANC-03-27 (Pancreatic Carcinoma)
Procedure, shortened: as §1

[10] = test system: PC-3_[JPC-3] (Lung Adenocarcinoma)
Procedure, shortened: as §1

[11] = test system: PSN1 (Pancreatic Carcinoma)
Procedure, shortened: as §1

[12] = test system: RCM-1 (Colorectal Carcinoma)
Procedure, shortened: as §1

[13] = test system: REH (B-Lymphoblastic Leukemia)
Procedure, shortened: as §1

[14] = test system: RKN (Other Solid Carcinomas)
Procedure, shortened: as §1

[15] = test system: SHP-77 (Small Cell Lung Carcinoma)
Procedure, shortened: as §1

SK-MEL-2 (Melanoma) = test system: SK-MEL-2 (Melanoma)
Procedure, shortened: as §1

[16] = test system: SK-PN-DW (Other Solid Carcinomas)
Procedure, shortened: as §1

[17] = test system: TE-8 (Esophageal Squamous Cell Carcinoma)
Procedure, shortened: as §1

SMILES | combination Emax [1] | combination Emax [2] | combination Emax [3] | combination Emax (IST-MES1 (Mesothelioma)) | combination Emax [4] | combination Emax [5] | combination Emax [6] | combination Emax [7] | combination Emax (NB12 (Neuroblastoma)) | combination Emax [8] | combination Emax [9] | combination Emax [10] | combination Emax [11] | combination Emax [12] | combination Emax [13] | combination Emax [14] | combination Emax [15] | combination Emax (SK-MEL-2 (Melanoma)) | combination Emax [16] | combination Emax [17]
O=C(c1cc(Cc2n[nH]c(=O)c3ccccc23)ccc1F)N1CCN(C(=O)C2CC2)CC1 [Olaparib] + COc1nnc2ccc(N3CCC(c4ccc(OCCN5CCN(C)C(=O)[C@H]5C)cc4)CC3)nn12 [AZD5153] (first compound max 10 µM, 7x7, partner max 1 µM) | 0.69 | 0.27 | 0.762 | 0.611 | 0.96 | 0.372 | 0.397 | 0.409 | 0.782 | 0.289 | 0.196 | 0.182 | 0.429 | 0.522 | 0.762 | 0.412 | 0.3 | 0.53 | 0.698 | 0.393
O=C(c1cc(Cc2n[nH]c(=O)c3ccccc23)ccc1F)N1CCN(C(=O)C2CC2)CC1 [Olaparib] + Cc1c2c(nn1C)CSCc1cc(n(C)n1)CSc1cc(c3ccccc3c1)OCCCc1c(C(=O)O)n(C)c3c-2c(Cl)ccc13 [AZD5991] (first compound max 10 µM, 7x7, partner max 1 µM) | 0.0932 | 0.0855 | 1 | 0.242 | 0.53 | 0.301 | 0.181 | 0.185 | 0.379 | 0.239 | 0.128 | 0.0845 | 0.214 | 0.0639 | 0.943 | 0.161 | 0.288 | 0.902 | 0.781 | 0.184
N#Cc1cnc(Nc2cc(NC[C@H]3CNCCO3)c(C(F)(F)F)cn2)cn1 [SRA737] + C=CCn1c(=O)c2cnc(Nc3ccc(N4CCN(C)CC4)cc3)nc2n1-c1cccc(C(C)(C)O)n1 [AZD1775] (first compound max 10 µM, partner max 1 µM) | 0.727 | 0.35 | 1 | 0.442 | 0.952 | 0.953 | 0.566 | 0.742 | 0.698 | 0.621 | 0.858 | 0.26 | 0.642 | 0.631 | 0.957 | 0.608 | 0.722 | 0.772 | 0.913 | 0.777
N#Cc1cnc(Nc2cc(NC[C@H]3CNCCO3)c(C(F)(F)F)cn2)cn1 [SRA737] + CCc1c2c(nc3ccc(O)cc13)-c1cc3c(c(=O)n1C2)COC(=O)[C@]3(O)CC [SN-38] (first compound max 10 µM, 7x7, partner max 0.3 µM) | 0.865 | 0.552 | 1 | 0.759 | 0.944 | 0.906 | 0.88 | 0.868 | 0.705 | 0.74 | 0.844 | 0.72 | 0.908 | 0.768 | 0.991 | 0.858 | 0.912 | 0.693 | 0.927 | 0.838
N#Cc1cnc(Nc2cc(NC[C@H]3CNCCO3)c(C(F)(F)F)cn2)cn1 [SRA737] + Nc1ccn([C@@H]2O[C@H](CO)[C@@H](O)C2(F)F)c(=O)n1 [Gemcitabine] (first compound max 10 µM, 7x7, partner max 0.3 µM) | 0.799 | 0.47 | 1 | 0.857 | 0.948 | 0.918 | 0.815 | 0.761 | 0.742 | 0.841 | 0.729 | 0.6 | 0.853 | 0.688 | 0.989 | 0.812 | 0.907 | 0.504 | 0.933 | 0.749
N#Cc1cnc(Nc2cc(NC[C@H]3CNCCO3)c(C(F)(F)F)cn2)cn1 [SRA737] + O=c1[nH]cc(F)c(=O)[nH]1 [5-Fluorouracil] (first compound max 10 µM, 7x7, partner max 20 µM) | 0.371 | 0.387 | 1 | 0.288 | 0.94 | 0.686 | 0.252 | 0.697 | 0.173 | 0.1 | 0.725 | 0.102 | 0.748 | 0.578 | 0.798 | 0.344 | 0.786 | 0.113 | 0.956 | 0.413
Cc1nc(-c2cn3c(n2)-c2ccc(-c4cnn(C(C)(C)C(N)=O)c4)cc2OCC3)n(C(C)C)n1 [Taselisib] + O=C(Nc1ccc2[nH]nc(-c3ccncc3)c2c1)[C@@H]1CCN(CC(=O)N2CCN(c3ccc(-c4ncccn4)cc3)CC2)C1 [SCH772984] (first compound max 10 µM, 7x7, partner max 5 µM) | 0.637 | 0.5 | 0.985 | 0.516 | 0.722 | 0.613 | 0.839 | 0.798 | 0.684 | 0.431 | 0.885 | 0.665 | 0.946 | 0.803 | 0.477 | 0.57 | 0.387 | 0.968 | 0.609 | 0.758
CC1(C)CCC(CN2CCN(c3ccc(C(=O)NS(=O)(=O)c4ccc(NCC5CCOCC5)c([N+](=O)[O-])c4)c(Oc4cnc5[nH]ccc5c4)c3)CC2)=C(c2ccc(Cl)cc2)C1 [Venetoclax] + CS(=O)(=O)CCNCc1ccc(-c2ccc3ncnc(Nc4ccc(OCc5cccc(F)c5)c(Cl)c4)c3c2)o1 [Lapatinib] (first compound max 1 µM, 7x7, partner max 10 µM) | 0.114 | 0.231 | 0.915 | 0.313 | 0.655 | 0.31 | 0.255 | 0.242 | 0.915 | 0.183 | 0.5 | 0.568 | 0.177 | 0.42 | 0.916 | 0.171 | 0.344 | 0.174 | 0.455 | 0.263
